# Results reported in patent US20210094954A1, “PREPARATION METHODS AND APPLICATIONS OF 3,5-DISUBSTITUTED METHYLPYRAZOLO[1,5-A]PYRIMIDINE-7-HYDROXYLIC SALTS” (priority 2019, published 2021).
# Read-outs that look alike come from different tables or passages of the source.
# How the values were obtained:
# Assay type in all cases: cell-based
# Bacillus cereus 2 = assay: microbe, parasite or virus in culture; conditions: Bacillus cereus, 2; 37° C., 24 hours; read-out: MIC values of in vitro antibacterial test results
# Bacillus subtilis 168 = assay: microbe, parasite or virus in culture; conditions: Bacillus subtilis, 168; 37° C., 24 hours; read-out: MIC values of in vitro antibacterial test results
# [1] = tested on: Enterococcus faecalis F2518(VRE); assay: microbe, parasite or virus in culture; conditions: Enterococcus faecalis, VRE, 24 h, read-out: MIC values of in vitro antibacterial test results
# [2] = tested on: Bacillus anthracis Bacillus 1; assay: microbe, parasite or virus in culture; conditions: Bacillus anthracis, 24 h, read-out: MIC values of in vitro antibacterial test results
# [3] = tested on: Streptococcus pneumoniae 6303 (PRSP); assay: microbe, parasite or virus in culture; conditions: Streptococcus pneumoniae, PRSP, 24 h, read-out: MIC values of in vitro antibacterial test results
# [4] = tested on: Staphylococcus aureus 29231; assay: microbe, parasite or virus in culture; conditions: Staphylococcus aureus, 29231; 37° C., 24 hours; read-out: MIC values of in vitro antibacterial test results
# [5] = tested on: Enterococcus faecalis 29212; assay: microbe, parasite or virus in culture; conditions: Enterococcus faecalis, 29212; 37° C., 24 hours; read-out: MIC values of in vitro antibacterial test results
# [6] = tested on: F2518(VRE), Staphylococcus aureus resistant strain 43300(MRSA), 703 (MRSA), pneumococcal resistance bacteria 6303(PRSP); assay: microbe, parasite or virus in culture; conditions: read-out: MIC values (μM)
# [7] = tested on: Streptococcus pneumoniae M2; assay: microbe, parasite or virus in culture; conditions: Streptococcus pneumoniae, M2; 37° C., 24 hours; read-out: MIC values of in vitro antibacterial test results
# [8] = tested on: Streptococcus pneumoniae 10351; assay: microbe, parasite or virus in culture; conditions: Streptococcus pneumoniae, 10351; 37° C., 24 hours; read-out: MIC values of in vitro antibacterial test results
# [9] = tested on: Staphylococcus aureus 43300(MRSA); assay: microbe, parasite or virus in culture; conditions: Staphylococcus aureus, MRSA, 24 h, read-out: MIC values of in vitro antibacterial test results
# Clostridium perfringens = assay: microbe, parasite or virus in culture; conditions: Clostridium perfringens, 24 h, read-out: MIC values of in vitro antibacterial test results
# Oral Candida = assay: microbe, parasite or virus in culture; conditions: Candida
# [10] = tested on: Staphylococcus aureus 703(MRSA); assay: microbe, parasite or virus in culture; conditions: Staphylococcus aureus, MRSA, 24 h, read-out: MIC values of in vitro antibacterial test results
# Peel fungus = assay: organism not typed; conditions: 37° C., 24 hours; read-out: MIC values of in vitro antibacterial test results
# Diphtheria bacilli = assay: organism not typed; conditions: 37° C., 24 hours; read-out: MIC values of in vitro antibacterial test results
# [11] = tested on: Streptococcus agalactia B group; assay: microbe, parasite or virus in culture; conditions: Streptococcus; 37° C., 24 hours; read-out: MIC values of in vitro antibacterial test results
# [12] = 37° C., 24 hours, read-out: MIC values of in vitro antibacterial test results
SMILES,MIC (Bacillus cereus 2),MIC (Bacillus subtilis 168),MIC [1],MIC [2],MIC [3],MIC [4],MIC [5],MIC [6],MIC [7],MIC [8],MIC [9],MIC (Clostridium perfringens),MIC (Oral Candida; read-out: MIC values (μM)),MIC (Oral Candida; [12]),MIC [10],MIC (Peel fungus),MIC (Diphtheria bacilli),MIC [11]
"Cc1nn2c([O-])cc(-c3ccc(C(=O)[O-])nc3)nc2c1-c1ccc(F)cc1F.[Na+].[Na+] [Compound 21, Disodium 5-(3-(2,4-difluorophenyl)-2-methyl-7-hydroxypyrazolo[1,5-α]pyrimidin-5-yl)picolinate]",< 150 mg/L,> 150 mg/L,< 150 mg/L,> 150 mg/L,> 150 mg/L,> 150 mg/L,< 150 mg/L,< 100 mg/L,< 100 mg/L,> 150 mg/L,< 100 mg/L,> 150 mg/L,< 100 mg/L,< 100 mg/L,< 150 mg/L,< 150 mg/L,> 150 mg/L,> 150 mg/L
"COc1ccc(-c2cc([O-])n3nc(C)c(-c4ccc(F)cc4F)c3n2)cn1.[Na+] [Compound 17, sodium 3-(2,4-difluorophenyl)-5-(6-methoxypyridin-3-yl)-2-methylpyrazolo[1,5-α]pyrimidin-7-olate]",< 150 mg/L,> 150 mg/L,< 150 mg/L,> 150 mg/L,> 150 mg/L,> 150 mg/L,< 150 mg/L,< 100 mg/L,< 100 mg/L,> 150 mg/L,< 100 mg/L,> 150 mg/L,< 100 mg/L,< 100 mg/L,< 150 mg/L,< 150 mg/L,> 150 mg/L,> 150 mg/L
"Cc1nn2c([O-])cc(-c3ccc(C(N)=O)cc3)nc2c1-c1ccc(F)cc1F.[Na+] [Compound 11, Sodium 5-(4-carbamoylphenyl)-3-(2,4-difluorophenyl)-2-methylpyrazolo[1,5-α]pyrimidin-7-olate]",< 150 mg/L,> 150 mg/L,< 150 mg/L,> 150 mg/L,> 150 mg/L,> 150 mg/L,< 150 mg/L,< 100 mg/L,< 100 mg/L,> 150 mg/L,< 100 mg/L,> 150 mg/L,,< 150 mg/L,< 150 mg/L,< 150 mg/L,> 150 mg/L,> 150 mg/L
